Calls of active or inactive are those of the source.
How the values were obtained:
Prothrombin = Prothrombin (Homo sapiens, UniProt P00734); experiment: Thrombin 1536 HTS Dose Response Confirmation. [Related pubchem assays: 1046 (Thrombin 1536 HTS; hits were confirmed in this assay)]; assay type: functional
[1] = luciferase reporter signal suppression in cells – H4 neuroglioma cells, luminescence, dose response (AID 1990); assay type: functional, cell-based
[2] = luciferase reporter signal reduction – luminescence, H4-C neuroglioblastoma cells, dose response (AID 2458); assay type: functional, cell-based;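 further: H4 neuroglioblastoma cells stably carrying a luciferase reporter gene fusion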
BJ [3] = experiment: BJ-TERT fibroblast viability loss – cell-based, RAS-independent, luminescence, dose response (AID 1933); assay type: functional; conditions: Homo sapiens
cells [4] = assay type: functional, cell-based
[5] = Luminescence Cell-Based Dose Response HTS to Identify Inhibitors of 5'UTR Stem-Loop Driven Prion Protein mRNA Translation in H4 Neuroglioblastoma Cells. [Related pubchem assays: 1827 (Project Summary), 1813 (Primary HTS)]; assay type: functional
[6] = alpha-synuclein stem-loop luciferase translation blockers – H4 neuroglioma cells, luminescence, confirmation (AID 1988); assay type: functional, cell-based
BJ [7] = experiment: cells; assay type: functional, cell-based; conditions: Homo sapiens
BJ [8] = experiment: BJ-TERT-LT-ST fibroblast viability loss – cell-based, RAS-independent, luminescence, dose response (AID 1935); assay type: functional; conditions: Homo sapiens;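 further: BJ fibroblasts immortalized with TERT plus LT and ST oncogenes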
[9] = DRD fibroblast viability loss – cell-based, non-viral oncogenic, luminescence, dose response (AID 1934); assay type: functional; conditions: Homo sapiens
[10] = alpha-synuclein stem-loop translation blockers – luminescence, H4 neuroglioblastoma cells, dose confirmation, confirmation (AID 2454); assay type: functional, cell-based;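 further: H4 neuroglioblastoma cells carrying an alpha-synuclein 5'UTR luciferase reporter; potency for inhibition of the luciferase signal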
[11] = HEK-293T viability loss after treatment – luminescence, T-cell screen hits, cytotoxicity control for TCR NF-kB inhibitor project, dose response (AID 489026); assay type: functional, cell-based;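 further: cells exposed to compound about 14 hours before the viability readout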
BJ [12] = experiment: growth inhibition of engineered Ras-driven BJ cells – cell-based, alamar blue fluorescence, cherrypicked samples, dose response (AID 2631); assay type: functional; conditions: Homo sapiens;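 further: confirmatory dose-response assay in RAS-dependent BJ fibroblasts engineered with TERT, LT and ST, with cytotoxicity read by fluorescence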
[13] = target: T1, Fructose-bisphosphate aldolase (Mycobacterium tuberculosis, UniProt P9WQA3); experiment: Fluorescence-based biochemical high throughput dose response assay for inhibitors of the fructose-bisphosphate aldolase (FBA) of M. tuberculosis.; assay type: functional
T1 sequence (P9WQA3 whole entry): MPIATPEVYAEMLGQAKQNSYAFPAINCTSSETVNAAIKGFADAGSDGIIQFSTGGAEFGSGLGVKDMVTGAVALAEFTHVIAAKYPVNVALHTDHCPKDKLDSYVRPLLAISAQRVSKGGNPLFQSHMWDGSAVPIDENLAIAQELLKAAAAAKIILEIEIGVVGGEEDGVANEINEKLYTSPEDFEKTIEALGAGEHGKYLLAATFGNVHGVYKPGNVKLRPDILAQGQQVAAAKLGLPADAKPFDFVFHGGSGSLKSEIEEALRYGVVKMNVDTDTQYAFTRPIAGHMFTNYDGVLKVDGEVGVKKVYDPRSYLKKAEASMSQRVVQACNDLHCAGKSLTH

[14] = Trypanosoma cruzi growth suppression in host cells – NIH3T3 host cells, beta-gal luminescence, confirmation (AID 2044); assay type: functional, cell-based;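 further: intracellular parasites grown in NIH/3T3 mouse fibroblasts as host cells; luminescent beta-galactosidase reporter signal from transgenic T. cruzi replicating inside host cells; inhibitors lower the luminescence signal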
[15] = NIH3T3 cell viability loss – ATP luminescence, mouse fibroblasts, counter-screen, dose response (AID 2010); assay type: functional, cell-based;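 further: cells exposed to compound for about 90 hours before reading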
cells [16] = experiment: cells
[17] = target: T2, RNA-binding protein pos-1 (Caenorhabditis elegans, UniProt G5EF15); experiment: disruptors of C. elegans POS-1 RNA interaction – biochemical, fluorescence polarization, dose response (AID 1964);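 further: purified POS-1 fused to maltose binding protein made in E. coli; potency of compounds blocking POS-1 binding to fluorescent RNA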
T2 sequence (G5EF15 whole entry): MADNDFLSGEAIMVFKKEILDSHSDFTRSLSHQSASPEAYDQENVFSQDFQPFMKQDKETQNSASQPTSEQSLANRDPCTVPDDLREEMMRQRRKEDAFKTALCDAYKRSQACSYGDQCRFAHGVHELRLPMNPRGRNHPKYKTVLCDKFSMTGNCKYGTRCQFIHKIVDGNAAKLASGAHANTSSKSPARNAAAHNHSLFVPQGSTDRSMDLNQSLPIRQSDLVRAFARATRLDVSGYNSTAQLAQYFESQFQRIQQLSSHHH

[18] = target: T3, Zinc finger protein mex-5 (Caenorhabditis elegans, UniProt Q9XUB2); experiment: potency of MEX-5 RNA-binding blockers – biochemical, C. elegans, fluorescence polarization, dose response (AID 1960)
T3 sequence (Q9XUB2 whole entry): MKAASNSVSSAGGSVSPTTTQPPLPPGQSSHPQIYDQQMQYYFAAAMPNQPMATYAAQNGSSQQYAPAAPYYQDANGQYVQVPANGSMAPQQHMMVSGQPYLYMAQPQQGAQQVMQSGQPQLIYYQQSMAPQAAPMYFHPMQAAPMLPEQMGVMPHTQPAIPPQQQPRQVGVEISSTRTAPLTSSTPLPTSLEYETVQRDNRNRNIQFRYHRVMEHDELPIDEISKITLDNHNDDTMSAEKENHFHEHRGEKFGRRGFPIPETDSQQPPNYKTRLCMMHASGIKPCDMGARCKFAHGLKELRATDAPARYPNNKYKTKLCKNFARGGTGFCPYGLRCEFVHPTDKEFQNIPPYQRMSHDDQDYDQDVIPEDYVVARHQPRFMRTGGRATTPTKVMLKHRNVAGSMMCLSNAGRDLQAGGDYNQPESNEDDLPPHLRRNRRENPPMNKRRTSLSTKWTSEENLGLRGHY

[19] = target: T4, Induced myeloid leukemia cell differentiation protein Mcl-1 (Homo sapiens, UniProt Q07820); experiment: blockers of MCL1 binding to BIM peptide – biochemical, fluorescence polarization, BIM-BH3 peptide, 1536-well, dose response (AID 2217)
T4 sequence (Q07820 whole entry): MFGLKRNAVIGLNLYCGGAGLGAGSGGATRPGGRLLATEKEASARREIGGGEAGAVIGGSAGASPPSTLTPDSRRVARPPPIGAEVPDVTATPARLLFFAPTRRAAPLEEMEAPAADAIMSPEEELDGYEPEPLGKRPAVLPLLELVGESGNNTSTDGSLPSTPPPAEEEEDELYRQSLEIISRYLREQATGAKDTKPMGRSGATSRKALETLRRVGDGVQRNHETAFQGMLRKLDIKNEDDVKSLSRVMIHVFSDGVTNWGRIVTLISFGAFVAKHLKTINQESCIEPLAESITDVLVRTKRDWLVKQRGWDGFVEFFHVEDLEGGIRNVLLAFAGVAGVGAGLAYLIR

Bcl-2-like protein 1 = Bcl-2-like protein 1 (Homo sapiens, UniProt Q07817); experiment: blockers of BCLXL peptide binding – biochemical, fluorescence polarization, 1536-well, selectivity assay for MCL1 inhibitor project, dose response (AID 2218)
[20] = target: T4, Induced myeloid leukemia cell differentiation protein Mcl-1; assay type: functional
[21] = target: Glucose-6-phosphate 1-dehydrogenase (Homo sapiens, UniProt P11413); experiment: inhibition of Homo sapiens G6PD, dose series – biochemical, fluorescence, selectivity assay for P. falciparum G6PD inhibitor project, dose response (AID 504792); assay type: functional
Vero = experiment: viability of Vero cells under compound – cytotoxicity control for flavivirus capping enzyme inhibitors (AID 588742); assay type: functional; conditions: Chlorocebus sabaeus
Genome polyprotein = Genome polyprotein (dengue virus type 2, UniProt P29990); experiment: flavivirus cap methylation enzyme inhibition – biochemical, confirmation dose response, primary screen (AID 588689); assay type: functional
[22] = HGIII-sPLA2 enzyme inhibition potency – biochemical, QFRET, IC50, dose response (AID 743457);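 further: green fluorescence rise as the enzyme cleaves BODIPY PC-A2 in liposomes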
[23] = viability loss in HepG2 hepatoma cells – cell-based, ATP luminescence, cherry-pick, activator set 2, cytotoxicity control, dose response (AID 1053143); assay type: functional
[24] = viability loss in THP-1 monocytes – THP-1 cells, cytotoxicity control for Vif-APOBEC3G degradation inhibitor project, dose response (AID 1117359); assay type: functional; conditions: THP-1
[25] = target: Peroxisome proliferator-activated receptor gamma/Nuclear receptor corepressor 2 (Homo sapiens, UniProt P37231+Q9Y618); experiment: Counterscreen for NR2E3 inverse agonists: TR-FRET-based biochemical high throughput dose response assay to identify inverse agonists of the interaction between peroxisome proliferator-activated receptor gamma (PPARg) and nuclear receptor co-repressor 2 (NCOR2).; assay type: functional
Peroxisome proliferator-activated receptor gamma/Nuclear receptor corepressor 2, sequence (P37231 whole entry): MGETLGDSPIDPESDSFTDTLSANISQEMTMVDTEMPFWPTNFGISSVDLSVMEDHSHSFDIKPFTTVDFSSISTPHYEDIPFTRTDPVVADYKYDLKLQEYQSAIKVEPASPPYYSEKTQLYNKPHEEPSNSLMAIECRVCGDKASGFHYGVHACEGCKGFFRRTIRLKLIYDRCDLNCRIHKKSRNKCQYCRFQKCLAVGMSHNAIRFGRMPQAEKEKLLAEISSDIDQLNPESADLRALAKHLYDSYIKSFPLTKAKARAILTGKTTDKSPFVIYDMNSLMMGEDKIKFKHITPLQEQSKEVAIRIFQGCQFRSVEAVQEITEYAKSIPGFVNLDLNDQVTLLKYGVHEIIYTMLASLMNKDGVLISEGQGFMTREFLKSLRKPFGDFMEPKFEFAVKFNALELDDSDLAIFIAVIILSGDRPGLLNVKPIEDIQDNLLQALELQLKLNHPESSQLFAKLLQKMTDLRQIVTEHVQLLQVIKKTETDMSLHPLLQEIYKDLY
Peroxisome proliferator-activated receptor gamma/Nuclear receptor corepressor 2, sequence (Q9Y618 whole entry): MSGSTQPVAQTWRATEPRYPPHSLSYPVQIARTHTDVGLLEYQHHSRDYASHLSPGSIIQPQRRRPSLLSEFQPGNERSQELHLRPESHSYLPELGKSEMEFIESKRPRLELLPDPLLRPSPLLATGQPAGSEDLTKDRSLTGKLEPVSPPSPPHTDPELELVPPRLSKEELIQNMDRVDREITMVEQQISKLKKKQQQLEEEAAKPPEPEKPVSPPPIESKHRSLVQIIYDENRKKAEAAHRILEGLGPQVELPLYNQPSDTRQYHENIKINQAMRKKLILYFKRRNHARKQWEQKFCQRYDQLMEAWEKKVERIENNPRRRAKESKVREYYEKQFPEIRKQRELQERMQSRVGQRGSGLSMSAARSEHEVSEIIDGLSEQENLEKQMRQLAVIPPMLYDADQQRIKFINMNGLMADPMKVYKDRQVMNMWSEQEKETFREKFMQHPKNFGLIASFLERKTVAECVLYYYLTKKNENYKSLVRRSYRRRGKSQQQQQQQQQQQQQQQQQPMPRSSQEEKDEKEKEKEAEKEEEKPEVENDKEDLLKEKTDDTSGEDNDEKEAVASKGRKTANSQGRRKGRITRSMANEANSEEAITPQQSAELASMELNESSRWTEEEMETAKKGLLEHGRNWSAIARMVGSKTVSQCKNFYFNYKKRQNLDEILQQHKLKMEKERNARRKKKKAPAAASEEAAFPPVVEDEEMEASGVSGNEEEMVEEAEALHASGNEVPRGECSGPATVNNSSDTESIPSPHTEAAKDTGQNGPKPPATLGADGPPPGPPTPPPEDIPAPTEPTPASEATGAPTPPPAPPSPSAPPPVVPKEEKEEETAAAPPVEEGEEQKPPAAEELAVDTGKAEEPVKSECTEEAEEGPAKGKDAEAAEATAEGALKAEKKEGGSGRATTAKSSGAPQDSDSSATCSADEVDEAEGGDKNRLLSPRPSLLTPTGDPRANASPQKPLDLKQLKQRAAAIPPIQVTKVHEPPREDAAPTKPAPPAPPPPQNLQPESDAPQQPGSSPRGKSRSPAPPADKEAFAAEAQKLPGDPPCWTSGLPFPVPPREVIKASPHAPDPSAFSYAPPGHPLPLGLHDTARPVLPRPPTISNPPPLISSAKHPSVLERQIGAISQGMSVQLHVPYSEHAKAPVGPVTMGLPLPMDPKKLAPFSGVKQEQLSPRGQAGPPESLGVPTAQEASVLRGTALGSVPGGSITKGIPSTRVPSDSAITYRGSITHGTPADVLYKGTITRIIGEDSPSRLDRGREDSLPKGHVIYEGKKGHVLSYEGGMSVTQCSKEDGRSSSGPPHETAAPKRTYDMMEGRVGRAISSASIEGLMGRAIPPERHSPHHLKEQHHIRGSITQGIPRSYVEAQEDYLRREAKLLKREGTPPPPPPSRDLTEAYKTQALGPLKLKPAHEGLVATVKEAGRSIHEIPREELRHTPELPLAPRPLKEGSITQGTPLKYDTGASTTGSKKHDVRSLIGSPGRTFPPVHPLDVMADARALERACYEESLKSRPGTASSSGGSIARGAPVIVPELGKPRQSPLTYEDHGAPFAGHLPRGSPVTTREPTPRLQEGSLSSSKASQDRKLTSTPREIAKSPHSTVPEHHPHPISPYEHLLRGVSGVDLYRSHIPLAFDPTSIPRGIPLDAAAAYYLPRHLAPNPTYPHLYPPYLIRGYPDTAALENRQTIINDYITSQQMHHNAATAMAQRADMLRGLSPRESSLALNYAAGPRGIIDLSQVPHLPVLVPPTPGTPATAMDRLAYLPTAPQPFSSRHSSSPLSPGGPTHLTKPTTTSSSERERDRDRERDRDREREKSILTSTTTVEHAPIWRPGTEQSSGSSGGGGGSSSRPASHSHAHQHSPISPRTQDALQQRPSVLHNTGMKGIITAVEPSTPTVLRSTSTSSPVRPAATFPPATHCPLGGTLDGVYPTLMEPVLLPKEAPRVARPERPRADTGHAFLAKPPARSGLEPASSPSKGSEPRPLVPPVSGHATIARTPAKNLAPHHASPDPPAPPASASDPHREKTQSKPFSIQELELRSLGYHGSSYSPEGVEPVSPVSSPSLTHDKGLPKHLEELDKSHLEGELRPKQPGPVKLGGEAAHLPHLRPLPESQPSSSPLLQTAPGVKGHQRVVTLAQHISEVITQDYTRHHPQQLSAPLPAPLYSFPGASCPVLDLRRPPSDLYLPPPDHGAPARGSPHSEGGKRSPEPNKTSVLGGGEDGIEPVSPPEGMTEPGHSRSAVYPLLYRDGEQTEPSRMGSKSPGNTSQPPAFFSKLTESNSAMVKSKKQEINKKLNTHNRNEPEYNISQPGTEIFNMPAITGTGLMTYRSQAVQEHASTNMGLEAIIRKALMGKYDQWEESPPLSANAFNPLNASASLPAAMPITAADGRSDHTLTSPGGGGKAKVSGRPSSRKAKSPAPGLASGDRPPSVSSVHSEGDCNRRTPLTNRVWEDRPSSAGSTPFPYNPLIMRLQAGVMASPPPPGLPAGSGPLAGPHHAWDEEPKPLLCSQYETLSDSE

[26] = target: Photoreceptor-specific nuclear receptor (Homo sapiens, UniProt Q9Y5X4); experiment: ligands suppressing NR2E3 nuclear receptor activity – biochemical, TR-FRET, dose response (AID 463256); assay type: functional
[27] = target: T5, Neuropeptides B/W receptor type 1 (Homo sapiens, UniProt P48145); experiment: Fluorescence-based dose response cell-based high throughput screening assay to identify antagonists of the G-protein coupled receptor 7 (GPR7). [Related pubchem assays: 1952 (Screening assay (GPR7 antagonists).), 1880 (Summary AID.)]; assay type: functional
T5 sequence (P48145 whole entry): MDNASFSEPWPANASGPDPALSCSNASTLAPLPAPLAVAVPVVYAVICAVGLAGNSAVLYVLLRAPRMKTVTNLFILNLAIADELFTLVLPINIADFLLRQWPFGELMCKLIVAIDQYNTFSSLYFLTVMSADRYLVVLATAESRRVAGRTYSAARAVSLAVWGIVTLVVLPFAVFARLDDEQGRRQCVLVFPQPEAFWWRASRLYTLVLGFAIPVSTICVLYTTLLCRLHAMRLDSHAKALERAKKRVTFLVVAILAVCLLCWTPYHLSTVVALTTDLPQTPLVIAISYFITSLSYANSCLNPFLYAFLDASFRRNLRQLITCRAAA

[28] = target: Melanin-concentrating hormone receptor 1 (Homo sapiens, UniProt Q99705); experiment: Fluorescence-based counterscreen for antagonists of the G-protein coupled receptor 7 (GPR7): cell-based high throughput dose response assay to identify antagonists of the melanin-concentrating hormone receptor 1 (MCHR1).; assay type: functional
Melanin-concentrating hormone receptor 1, sequence (Q99705 whole entry): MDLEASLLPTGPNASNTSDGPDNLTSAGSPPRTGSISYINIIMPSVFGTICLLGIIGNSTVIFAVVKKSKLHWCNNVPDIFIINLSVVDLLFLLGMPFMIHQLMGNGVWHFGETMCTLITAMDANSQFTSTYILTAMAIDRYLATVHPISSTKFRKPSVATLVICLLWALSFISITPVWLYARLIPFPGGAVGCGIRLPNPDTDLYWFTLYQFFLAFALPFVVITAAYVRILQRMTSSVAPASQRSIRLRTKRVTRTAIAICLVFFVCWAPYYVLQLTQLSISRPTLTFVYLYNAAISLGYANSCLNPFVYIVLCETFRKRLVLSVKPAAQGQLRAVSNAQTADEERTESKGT

[29] = target: Voltage-gated inwardly rectifying potassium channel KCNH2 (Homo sapiens, UniProt Q12809); experiment: concentration-dependent hERG rescue from blockers – cell-based, thallium flux, dose response (AID 2121); assay type: ADME
Voltage-gated inwardly rectifying potassium channel KCNH2, sequence (Q12809 whole entry, the tested form may be a part): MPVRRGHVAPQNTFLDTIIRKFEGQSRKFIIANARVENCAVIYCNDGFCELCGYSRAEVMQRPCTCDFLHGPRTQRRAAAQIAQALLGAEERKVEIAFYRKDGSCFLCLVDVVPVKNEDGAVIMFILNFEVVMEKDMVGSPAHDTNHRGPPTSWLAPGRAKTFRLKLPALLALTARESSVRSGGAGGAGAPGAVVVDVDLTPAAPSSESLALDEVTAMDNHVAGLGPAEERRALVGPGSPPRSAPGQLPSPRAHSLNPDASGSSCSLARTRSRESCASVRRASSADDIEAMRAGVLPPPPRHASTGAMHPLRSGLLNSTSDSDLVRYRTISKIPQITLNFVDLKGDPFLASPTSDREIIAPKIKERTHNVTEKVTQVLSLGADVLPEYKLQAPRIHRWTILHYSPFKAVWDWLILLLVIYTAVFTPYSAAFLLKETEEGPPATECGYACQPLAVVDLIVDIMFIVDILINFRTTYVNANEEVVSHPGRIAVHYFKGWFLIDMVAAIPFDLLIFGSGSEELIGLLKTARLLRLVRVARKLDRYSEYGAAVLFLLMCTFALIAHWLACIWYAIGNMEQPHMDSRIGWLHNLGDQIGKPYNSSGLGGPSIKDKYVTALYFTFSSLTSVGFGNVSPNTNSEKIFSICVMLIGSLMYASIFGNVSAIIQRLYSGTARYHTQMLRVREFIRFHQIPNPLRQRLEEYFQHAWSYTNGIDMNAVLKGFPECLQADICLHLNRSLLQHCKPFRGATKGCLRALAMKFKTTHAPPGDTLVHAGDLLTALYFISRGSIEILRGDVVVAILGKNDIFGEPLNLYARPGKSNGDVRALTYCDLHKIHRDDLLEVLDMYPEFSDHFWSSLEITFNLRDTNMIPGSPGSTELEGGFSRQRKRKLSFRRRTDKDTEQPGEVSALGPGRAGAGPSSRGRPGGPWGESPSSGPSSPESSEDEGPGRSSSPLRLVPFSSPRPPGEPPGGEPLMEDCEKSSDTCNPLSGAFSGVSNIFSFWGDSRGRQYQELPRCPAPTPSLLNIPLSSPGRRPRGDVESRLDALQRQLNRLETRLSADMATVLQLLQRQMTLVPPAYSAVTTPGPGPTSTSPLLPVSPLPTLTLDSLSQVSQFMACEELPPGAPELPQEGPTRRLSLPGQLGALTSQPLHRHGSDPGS

[30] = target: T6, Carboxy-terminal domain RNA polymerase II polypeptide A small phosphatase 1 (Homo sapiens, UniProt Q9GZU7); experiment: CTDSP1 inhibitors, concentration-response, biochemical, absorbance readout, ultra-high-throughput screen actives (AID 540297); assay type: functional
T6 sequence (Q9GZU7 whole entry): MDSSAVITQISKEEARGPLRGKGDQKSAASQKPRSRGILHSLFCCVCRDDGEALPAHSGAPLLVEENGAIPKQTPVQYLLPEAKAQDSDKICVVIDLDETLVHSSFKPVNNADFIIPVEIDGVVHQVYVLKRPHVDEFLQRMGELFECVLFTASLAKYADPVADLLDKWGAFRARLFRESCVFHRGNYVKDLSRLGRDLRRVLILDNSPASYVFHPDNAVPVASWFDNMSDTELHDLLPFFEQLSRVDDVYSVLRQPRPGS

[31] = mitochondrial function rescue without frataxin homolog – Friedreich's ataxia, plus single-dose screen, dose response (AID 1465); assay type: functional;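 further: yeast depleted of Yfh1p frataxin homolog grown on glycerol needing respiration; WST-1 tetrazolium dye reduction as measure of cellular dehydrogenase metabolic activity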

## CCC(=O)n1nc(-c2ccc(OC)cc2)nc1NCc1cccs1
Prothrombin
  IC50: 1.48 µM (active)

## N#Cc1ccc(-c2cccs2)nc1SCc1cccnc1
[1]
  EC50: 5.46 µM (active)
[2]
  EC50: 0.841 µM (active)
BJ [3]
  EC50: 7.55 µM (inconclusive)
Cells [4]
  EC50: 1.24 µM (active)
[5]
  EC50: 0.156 µM (active)
[6]
  EC50: < 0.1 µM (active)
BJ [7]
  EC50: 15 µM (active)
BJ [8]
  EC50: 3.66 µM (inconclusive)
[9]
  EC50: 11.5 µM (inconclusive)
[10]
  EC50: > 12 µM (not active)
[11]
  IC50: > 80 µM (inactive)
BJ [12]
  EC50: 0.188 µM (active)
[13]
  IC50: > 1.11 µM (active)

## CN(C)CCCN(C(=O)COc1ccc(Cl)cc1)c1nc2cc3c(cc2s1)OCCO3
[14]
  EC50: < 0.1 µM (active)
[15]
  EC50: > 60 µM (not active)
Cells [16]
  EC50: 0.069 µM (active)

## C=CC/N=c1\scc(-c2ccco2)n1/N=C/c1ccc(O)c(O)c1O
[17]
  EC50: 40.6 µM (active)
[18]
  EC50: 2.68 µM (active)
[19]
  IC50: 2.94 µM (active)
Bcl-2-like protein 1
  IC50: > 109 µM (not active)
[20]
  IC50: 2.81 µM (not active)
[21]
  IC50: > 80 µM (inactive)
Vero
  CC50: 22.8 µM (active)
Genome polyprotein
  IC50: 83.8 µM (active)
[22]
  IC50: 49.6 µM (inactive)
[23]
  AC50: 26 µM (active)
[24]
  CC50: > 40 µM (active)

## COC(=O)c1nnc(NC(=O)c2ccc(F)cc2)[nH]1
Prothrombin
  IC50: 0.297 µM (active)

## O=C(Nc1ccc(-c2ccc3nncn3n2)cc1)c1ccc(Br)o1
[25]
  IC50: 4.01 µM (active)
[26]
  IC50: 3.62 µM (active)

## O=C(NCC(c1cccnc1)N1CCN(c2ccccc2)CC1)Oc1ccccc1 (centres undefined)
[14]
  EC50: < 0.1 µM (active)
[15]
  EC50: > 30 µM (not active)
Cells [16]
  EC50: 0.052 µM (active)

## CCc1ccc(C2CC(c3ccccc3Cl)Nc3nc(N)nn32)cc1 (centres undefined)
[27]
  IC50: 5.58 µM (active)
[28]
  IC50: 19.6 µM (not active)

## CCN(CC)c1ccc(NC(=S)NC(=O)c2cccs2)cc1
[29]
  EC50: 1.24 µM (active)

## CCn1c(O)c(N=NC2=NC(=O)CS2)c2ccccc21
[29]
  EC50: 4.83 µM (active)

## Cc1ccccc1NC(=O)Cn1nnc(S(=O)(=O)c2ccc(C(C)(C)C)cc2)c1N
[27]
  IC50: > 43.8 µM (not active)
[28]
  IC50: > 43.8 µM (not active)
[30]
  IC50: 7.74 µM (active)

## O=C(NNc1nc2ccc(F)cc2s1)c1cccc(F)c1
[14]
  EC50: 3.84 µM (active)
[15]
  EC50: 6.48 µM (active)
[31]
  EC50: > 100 µM (active)

Source: ChEMBL document CHEMBL1201862, “PubChem BioAssay data set” (2004)
